From ChEMBL document CHEMBL3046791, “Design and synthesis of 2-quinolones as antioxidants and antimicrobials: a rational approach” (Med Chem Res, 2010)

Tests used:
Staphylococcus aureus [1] = assay: Antibacterial activity against Staphylococcus aureus at 500 ug/0.1 mL after 24 hr by agar diffusion method; assay type: functional
Bacillus subtilis [2] = assay: Antibacterial activity against Bacillus subtilis at 500 ug/0.1 mL after 24 hr by agar diffusion method; assay type: functional
[3] = Partition coefficient, log P of the compound; assay type: physicochemical; conditions: octanol/water
Escherichia coli [4] = assay: Antibacterial activity against Escherichia coli at 500 ug/0.1 mL after 24 hr by agar diffusion method; assay type: functional
Pseudomonas aeruginosa [5] = assay: Antibacterial activity against Pseudomonas aeruginosa at 500 ug/0.1 mL after 24 hr by agar diffusion method; assay type: functional
Bacillus subtilis [6] = assay: Antibacterial activity against Bacillus subtilis at 10 ug/0.1 mL after 24 hr by agar diffusion method; assay type: functional
Pseudomonas aeruginosa [7] = assay: Antibacterial activity against Pseudomonas aeruginosa at 10 ug/0.1 mL after 24 hr by agar diffusion method; assay type: functional
Staphylococcus aureus [8] = assay: Antibacterial activity against Staphylococcus aureus at 10 ug/0.1 mL after 24 hr by agar diffusion method; assay type: functional
Escherichia coli [9] = assay: Antibacterial activity against Escherichia coli at 10 ug/0.1 mL after 24 hr by agar diffusion method; assay type: functional

| SMILES | inhibition zone (IZ) (Staphylococcus aureus [1]) | inhibition zone (IZ) (Bacillus subtilis [2]) | logP [3] | inhibition zone (IZ) (Escherichia coli [4]) | other results |
| --- | --- | --- | --- | --- | --- |
| CC(=O)Nc1ccc2c(C)cc(=O)[nH]c2c1 | 11 mm | 13 mm | 0.995 | – | – |
| Cc1cc(=O)[nH]c2cc(NC(=O)c3ccc(Cl)cc3Cl)ccc12 | – | – | 1.83 | 9 mm | – |
| Cc1cc(=O)[nH]c2cc(NC(=O)c3ccc(F)cc3)ccc12 | 11 mm | 12 mm | 1.61 | – | – |
| Cc1cc(=O)[nH]c2cc(NC(=O)c3c(Br)cccc3Br)ccc12 | 12 mm | 12 mm | 1.75 | – | – |
| Cc1cc(=O)[nH]c2cc(NC(=O)c3ccc([N+](=O)[O-])cc3)ccc12 | – | – | 1.63 | 11 mm | inhibition zone (IZ) (Pseudomonas aeruginosa [5]): 9 mm |
| Cc1cc(=O)[nH]c2cc(NC(=O)c3c([N+](=O)[O-])cccc3[N+](=O)[O-])ccc12 | – | 12.5 mm | 1.82 | 13 mm | inhibition zone (IZ) (Pseudomonas aeruginosa [5]): 10 mm |
| Cc1ccccc1C(=O)Nc1ccc2c(C)cc(=O)[nH]c2c1 | 10 mm | 12 mm | 1.71 | – | – |
| Cc1ccc(C(=O)Nc2ccc3c(C)cc(=O)[nH]c3c2)cc1 | – | – | 1.67 | 13 mm | inhibition zone (IZ) (Pseudomonas aeruginosa [5]): 10 mm |
| COc1ccc(C(=O)Nc2ccc3c(C)cc(=O)[nH]c3c2)cc1OC | 16 mm | 13 mm | 1.46 | 15 mm | – |
| Cc1cc(=O)[nH]c2cc(NC(=O)c3cccc4ccccc34)ccc12 | – | 13 mm | 1.72 | 11 mm | – |
| Cc1cc(=O)[nH]c2cc(NC(=O)/C=C/c3ccccc3)ccc12 | – | 11 mm | 1.69 | 12 mm | – |
| Cc1cc(=O)[nH]c2cc(NC(=O)c3ccccc3)ccc12 | – | 12 mm | 1.66 | – | inhibition zone (IZ) (Pseudomonas aeruginosa [5]): 11 mm |
| Cc1cc(=O)[nH]c2cc(NC(=O)c3ccccc3Cl)ccc12 | – | 10.5 mm | 1.55 | – | – |
| Cc1cc(=O)[nH]c2cc(NC(=O)c3cccc(Cl)c3)ccc12 | – | – | 1.69 | – | – |
| Cc1cc(=O)[nH]c2cc(NC(=O)c3ccc(Cl)cc3)ccc12 | – | – | 1.69 | 9 mm | – |
| Cc1cc(O)nc2cc(N)ccc12 | 11 mm | 10 mm | 0.793 | 10 mm | inhibition zone (IZ) (Pseudomonas aeruginosa [5]): 11 mm |
| CC1(C)S[C@@H]2[C@H](NC(=O)[C@H](N)c3ccc(O)cc3)C(=O)N2[C@H]1C(=O)O [AMOXICILLIN] | – | – | – | – | inhibition zone (IZ) (Bacillus subtilis [6]): 34 mm; inhibition zone (IZ) (Pseudomonas aeruginosa [7]): 26 mm; inhibition zone (IZ) (Staphylococcus aureus [8]): 30 mm; inhibition zone (IZ) (Escherichia coli [9]): 23 mm |
